# The source made the active and inactive calls. The rule behind the calls is not given here. Where a SMILES comes first, the peptide text is derived from it. [ ]: non-standard residue; d: D form. The star is where a group is joined. X3 = NCCOCCOCCOCCOCCOCCOCCOCCOCCCC(=O)*; Stearoyl = CCCCCCCCCCCCCCCCCC(=O)*; Palmitoyl = CCCCCCCCCCCCCCCC(=O)*; X1 = NCCOCCOCCOCCOCCOCCOCCCC(=O)*; X2 = NCCOCCOCCOCCOCCCC(=O)*; Sar = CNCC(=O)O
# Assays:
# [1] = Stability in human serum measured upto 24 hrs; assay type: ADME, cell-free
# [2] = target: T1, Neuronal acetylcholine receptor; alpha9/alpha10 (Homo sapiens) (UniProt Q9UGM1+Q9GZZ6); assay: Inhibition of human alpha9alpha10 nAChR expressed in acetylcholine-induced Xenopus laevis oocytes assessed as inhibition of acetylcholine-induced current at 30 nM incubated for 5 mins by two electrode voltage-clamp assay; assay type: cell-based; conditions: Oocyte
# [3] = target: T2, Voltage-dependent N-type calcium channel subunit alpha-1B (Homo sapiens, UniProt Q00975); assay: Inhibition of human eGFP tagged Cav2.2 channel transfected in HEK293T cells co-expressed with human GABAB receptor assessed as inhibition of Cav2.2-mediated Ba2+ current at 1 uM by whole-cell patch clamp assay; assay type: cell-based
# Target sequence in this assay (Q00975 whole entry, looked up): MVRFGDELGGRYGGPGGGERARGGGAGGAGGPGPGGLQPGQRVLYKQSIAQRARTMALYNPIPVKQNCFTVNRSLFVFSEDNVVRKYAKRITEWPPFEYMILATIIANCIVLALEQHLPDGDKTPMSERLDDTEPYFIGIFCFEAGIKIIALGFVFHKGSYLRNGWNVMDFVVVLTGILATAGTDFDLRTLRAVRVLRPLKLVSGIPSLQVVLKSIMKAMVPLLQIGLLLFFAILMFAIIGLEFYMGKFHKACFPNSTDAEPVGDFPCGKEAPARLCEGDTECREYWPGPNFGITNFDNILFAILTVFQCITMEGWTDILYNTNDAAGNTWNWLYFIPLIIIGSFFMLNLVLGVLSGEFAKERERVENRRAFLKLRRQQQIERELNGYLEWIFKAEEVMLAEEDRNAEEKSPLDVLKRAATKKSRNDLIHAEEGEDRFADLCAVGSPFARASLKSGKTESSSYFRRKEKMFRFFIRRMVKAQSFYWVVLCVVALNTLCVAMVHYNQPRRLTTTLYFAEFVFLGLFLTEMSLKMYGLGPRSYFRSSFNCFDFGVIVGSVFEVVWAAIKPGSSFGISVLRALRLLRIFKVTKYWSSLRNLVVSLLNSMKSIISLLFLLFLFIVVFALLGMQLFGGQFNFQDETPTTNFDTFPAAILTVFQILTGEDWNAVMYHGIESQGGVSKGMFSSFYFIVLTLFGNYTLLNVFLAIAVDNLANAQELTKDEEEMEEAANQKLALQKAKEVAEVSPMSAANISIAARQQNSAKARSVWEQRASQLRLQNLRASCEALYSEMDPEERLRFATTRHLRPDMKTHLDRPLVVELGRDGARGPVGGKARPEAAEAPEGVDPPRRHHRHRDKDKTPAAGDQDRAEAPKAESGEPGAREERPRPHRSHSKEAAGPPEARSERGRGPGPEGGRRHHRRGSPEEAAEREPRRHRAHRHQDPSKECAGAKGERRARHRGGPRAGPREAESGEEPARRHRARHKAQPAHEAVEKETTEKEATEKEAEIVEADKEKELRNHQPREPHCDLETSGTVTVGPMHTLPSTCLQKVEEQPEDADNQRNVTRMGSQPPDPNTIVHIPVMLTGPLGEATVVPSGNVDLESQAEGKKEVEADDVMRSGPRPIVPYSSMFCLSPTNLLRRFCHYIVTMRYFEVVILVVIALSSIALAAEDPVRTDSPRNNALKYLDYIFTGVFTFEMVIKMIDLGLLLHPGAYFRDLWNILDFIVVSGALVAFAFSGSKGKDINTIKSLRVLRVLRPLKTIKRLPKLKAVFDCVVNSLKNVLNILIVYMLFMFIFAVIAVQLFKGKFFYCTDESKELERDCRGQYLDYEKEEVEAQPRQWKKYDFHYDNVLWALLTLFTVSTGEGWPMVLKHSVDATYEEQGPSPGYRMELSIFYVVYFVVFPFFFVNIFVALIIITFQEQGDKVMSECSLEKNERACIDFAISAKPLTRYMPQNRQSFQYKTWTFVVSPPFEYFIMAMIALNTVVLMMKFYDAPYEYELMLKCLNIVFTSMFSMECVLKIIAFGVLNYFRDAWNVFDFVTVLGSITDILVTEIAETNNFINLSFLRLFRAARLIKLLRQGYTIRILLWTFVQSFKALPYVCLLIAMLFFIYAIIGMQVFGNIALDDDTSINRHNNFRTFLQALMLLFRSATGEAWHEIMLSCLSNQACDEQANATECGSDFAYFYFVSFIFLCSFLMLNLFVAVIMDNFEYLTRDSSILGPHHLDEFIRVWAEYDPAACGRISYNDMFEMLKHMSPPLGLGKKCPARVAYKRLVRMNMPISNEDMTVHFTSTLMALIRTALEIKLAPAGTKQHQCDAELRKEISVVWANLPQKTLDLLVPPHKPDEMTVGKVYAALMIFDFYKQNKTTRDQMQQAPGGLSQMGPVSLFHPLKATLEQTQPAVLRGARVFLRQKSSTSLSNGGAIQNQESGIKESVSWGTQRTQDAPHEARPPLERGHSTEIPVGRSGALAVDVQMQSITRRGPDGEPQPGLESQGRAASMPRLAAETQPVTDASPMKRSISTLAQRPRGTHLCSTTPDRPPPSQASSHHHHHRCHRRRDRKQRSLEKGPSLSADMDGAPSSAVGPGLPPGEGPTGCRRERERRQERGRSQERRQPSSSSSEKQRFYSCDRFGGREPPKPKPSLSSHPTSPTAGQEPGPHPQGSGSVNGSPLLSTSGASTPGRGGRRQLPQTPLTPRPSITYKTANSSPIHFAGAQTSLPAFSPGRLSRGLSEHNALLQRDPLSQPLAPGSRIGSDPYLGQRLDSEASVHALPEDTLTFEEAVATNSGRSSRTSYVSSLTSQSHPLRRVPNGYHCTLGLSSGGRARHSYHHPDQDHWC
# [4] = target: T2, Voltage-dependent N-type calcium channel subunit alpha-1B; assay: Inhibition of human eGFP tagged Cav2.2 channel transfected in HEK293T cells co-expressed with human GABAB receptor assessed as inhibition of Cav2.2-mediated Ba2+ current at 100 uM by whole-cell patch clamp assay; assay type: cell-based
# Target sequence in this assay (Q00975 whole entry, looked up): as above
# [5] = Stability in human plasma assessed as half life; assay type: ADME, cell-free
# [6] = Stability in human serum assessed as parent compound remaining measured after 24 hrs; assay type: ADME, cell-free
# [7] = target: Neuronal acetylcholine receptor; alpha9/alpha10 (Homo sapiens, UniProt Q9GZZ6+Q9UGM1); assay: Inhibition of human alpha9alpha10 nAChR expressed in acetylcholine-induced Xenopus laevis oocytes assessed as inhibition of acetylcholine-induced current incubated for 5 mins by two electrode voltage-clamp assay; assay type: cell-based, Oocyte
# Rattus norvegicus [8] = assay: Antinociceptive activity in Chronic constriction injury rat model assessed as reduction in pain at 250 microg/kg, IM administration and measured after 2 hrs; assay type: functional, organism-based; conditions: dose 250.0 µg/kg
# [9] = target: Neuronal acetylcholine receptor subunit alpha-7 (Homo sapiens, UniProt P36544); assay: Inhibition of human alpha7 nAChR expressed in acetylcholine-induced Xenopus laevis oocytes assessed as inhibition of acetylcholine-induced current incubated for 5 mins by two electrode voltage-clamp assay; assay type: cell-based, Oocyte
# [10] = target: T2, Voltage-dependent N-type calcium channel subunit alpha-1B; assay: Inhibition of human eGFP tagged Cav2.2 channel transfected in HEK293T cells co-expressed with human GABAB receptor assessed as inhibition of Cav2.2-mediated Ba2+ current by whole-cell patch clamp assay; assay type: cell-based
# Target sequence in this assay (Q00975 whole entry): as the sequence (Q00975 whole entry, looked up) above
# [11] = target: T2, Voltage-dependent N-type calcium channel subunit alpha-1B; assay: Inhibition of human eGFP tagged Cav2.2 channel transfected in HEK293T cells co-expressed with human GABAB receptor assessed as inhibition of Cav2.2-mediated Ba2+ current at 100 uM by whole-cell patch clamp assay relative to control; assay type: cell-based
# Target sequence in this assay (Q00975 whole entry, looked up): as above
# [12] = target: Neuronal acetylcholine receptor; alpha3/beta4 (Homo sapiens) (UniProt P30926+P32297); assay: Inhibition of human alpha3beta4 nAChR expressed in acetylcholine-induced Xenopus laevis oocytes assessed as inhibition of acetylcholine-induced current at 100 nM incubated for 5 mins by two electrode voltage-clamp assay; assay type: cell-based; conditions: Oocyte
# [13] = target: Neuronal acetylcholine receptor; alpha3/beta2 (Homo sapiens) (UniProt P17787+P32297); assay: Inhibition of human alpha3beta2 nAChR expressed in acetylcholine-induced Xenopus laevis oocytes assessed as inhibition of acetylcholine-induced current at 100 nM incubated for 5 mins by two electrode voltage-clamp assay; assay type: cell-based; conditions: Oocyte
# [14] = target: Neuronal acetylcholine receptor; alpha4/beta4 (Homo sapiens) (UniProt P30926+P43681); assay: Inhibition of human alpha4beta4 nAChR expressed in acetylcholine-induced Xenopus laevis oocytes assessed as inhibition of acetylcholine-induced current at 100 nM incubated for 5 mins by two electrode voltage-clamp assay; assay type: cell-based; conditions: Oocyte
# [15] = target: T1, Neuronal acetylcholine receptor; alpha9/alpha10 (Homo sapiens); assay: Inhibition of human alpha9alpha10 nAChR expressed in acetylcholine-induced Xenopus laevis oocytes assessed as inhibition of acetylcholine-induced current at 100 nM incubated for 5 mins by two electrode voltage-clamp assay; assay type: cell-based; conditions: Oocyte
# [16] = target: Neuronal acetylcholine receptor; alpha4/beta2 (Homo sapiens) (UniProt P17787+P43681); assay: Inhibition of human alpha4beta2 nAChR expressed in acetylcholine-induced Xenopus laevis oocytes assessed as inhibition of acetylcholine-induced current at 100 nM incubated for 5 mins by two electrode voltage-clamp assay; assay type: cell-based; conditions: Oocyte
# Rattus norvegicus [17] = assay: Antinociception activity in Oxaliplatin-induced cold allodynia in rat model assessed as analgesic effect at 250 microg/kg, sc measured after 1 hr; assay type: functional, organism-based; conditions: dose 250.0 µg/kg
# Rattus norvegicus [18] = assay: Antinociception activity in Oxaliplatin-induced cold allodynia in rat model assessed as analgesic effect at 250 microg/kg, sc measured after 4 to 8 hr; assay type: functional, organism-based; conditions: dose 250.0 µg/kg, time 4-8 hrs
# Rattus norvegicus [19] = assay: Antinociception activity in Oxaliplatin-induced cold allodynia in rat model assessed as analgesic effect at 250 microg/kg, iv measured after 1 to 12 hr; assay type: functional, organism-based; conditions: dose 250.0 µg/kg, time 1-12 hrs
# Chain of Neuronal acetylcholine receptor; alpha9/alpha10 (Q9UGM1 whole entry): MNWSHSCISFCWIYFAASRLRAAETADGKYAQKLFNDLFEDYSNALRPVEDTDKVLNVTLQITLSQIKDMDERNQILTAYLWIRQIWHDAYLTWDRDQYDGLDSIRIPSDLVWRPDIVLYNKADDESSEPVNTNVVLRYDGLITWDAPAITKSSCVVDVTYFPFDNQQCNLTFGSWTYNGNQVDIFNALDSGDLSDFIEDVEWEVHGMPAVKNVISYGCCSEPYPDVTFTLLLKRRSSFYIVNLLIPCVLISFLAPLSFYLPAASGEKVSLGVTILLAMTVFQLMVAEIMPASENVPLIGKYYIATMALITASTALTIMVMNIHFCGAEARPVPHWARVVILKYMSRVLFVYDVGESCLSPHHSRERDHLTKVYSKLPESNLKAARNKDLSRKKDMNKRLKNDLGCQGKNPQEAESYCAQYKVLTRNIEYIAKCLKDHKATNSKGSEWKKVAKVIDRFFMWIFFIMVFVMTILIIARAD
# Chain of Neuronal acetylcholine receptor; alpha9/alpha10 (Q9GZZ6 whole entry): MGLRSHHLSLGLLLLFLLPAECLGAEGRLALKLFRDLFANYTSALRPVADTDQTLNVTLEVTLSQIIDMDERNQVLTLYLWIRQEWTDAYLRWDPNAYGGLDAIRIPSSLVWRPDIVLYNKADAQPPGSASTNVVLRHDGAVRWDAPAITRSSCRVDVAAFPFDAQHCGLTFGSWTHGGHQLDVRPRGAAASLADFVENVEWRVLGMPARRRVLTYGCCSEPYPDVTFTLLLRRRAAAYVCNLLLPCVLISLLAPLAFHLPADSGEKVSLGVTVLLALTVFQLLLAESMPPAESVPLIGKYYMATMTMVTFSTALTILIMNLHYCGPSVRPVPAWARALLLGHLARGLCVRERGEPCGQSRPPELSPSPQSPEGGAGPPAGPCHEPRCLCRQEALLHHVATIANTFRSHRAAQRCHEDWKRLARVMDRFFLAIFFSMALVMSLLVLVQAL
# Chain of Neuronal acetylcholine receptor subunit alpha-7 (P36544 whole entry): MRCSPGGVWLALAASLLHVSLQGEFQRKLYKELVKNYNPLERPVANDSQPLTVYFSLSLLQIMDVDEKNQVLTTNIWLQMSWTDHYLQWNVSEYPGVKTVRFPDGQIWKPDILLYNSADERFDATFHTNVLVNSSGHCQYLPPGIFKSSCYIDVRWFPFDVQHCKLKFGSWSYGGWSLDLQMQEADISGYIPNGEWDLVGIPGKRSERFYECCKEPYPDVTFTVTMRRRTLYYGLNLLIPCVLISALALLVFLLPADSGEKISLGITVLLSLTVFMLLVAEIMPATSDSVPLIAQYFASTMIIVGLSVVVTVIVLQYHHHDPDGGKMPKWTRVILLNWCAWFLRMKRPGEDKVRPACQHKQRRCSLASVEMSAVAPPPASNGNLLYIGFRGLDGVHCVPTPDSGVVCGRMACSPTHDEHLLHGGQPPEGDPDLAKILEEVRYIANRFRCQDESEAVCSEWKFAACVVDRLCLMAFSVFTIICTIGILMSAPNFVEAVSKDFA
Compound,inhibition [2],inhibition [3],inhibition [4],remaining at 24 h [6],IC50 [7],Activity (Rattus norvegicus [8]),also measured
CCCCCCCCCCCCCCCCCC(=O)NCC(=O)N[C@@H](CCCNC(=N)N)C(=O)N[C@@H](Cc1ccc(O)cc1)C(=O)N[C@@H](CCCNC(=N)N)C(=O)N[C@@H](CO)C(=O)N1CCC[C@H]1C(=O)N[C@@H](Cc1ccc(O)cc1)C(=O)N[C@@H](CC(=O)O)C(=O)N[C@@H](CCCNC(=N)N)C(=O)N[C@@H](CCCNC(=N)N)C(=O)N[C@@H](CCCNC(=N)N)C(=O)N[C@@H](CCCNC(=N)N)C(=O)N[C@@H](Cc1ccc(O)cc1)C(=O)N[C@@H](CCCNC(=N)N)C(=O)N[C@@H](CCCNC(=N)N)C(=O)N[C@H](C(=O)N[C@H](C(=O)N[C@@H](CC(=O)O)C(N)=O)[C@@H](C)O)[C@@H](C)CC (Stearoyl-GRYRSPYDRRRRYRRITD-NH2),inactive,Active; Compound Showed Weak Inhibitory Activity,Active; Compound Showed Minimal Activity,,,,Stability [1]: Stable
H-GRYRSPYDRRRRYRRITD-NH2,,,,,,,half-life [5]: < 30 min
CC[C@H](C)[C@H](NC(=O)[C@H](CCCNC(=N)N)NC(=O)[C@H](CCCNC(=N)N)NC(=O)[C@H](Cc1ccc(O)cc1)NC(=O)[C@H](CCCNC(=N)N)NC(=O)[C@H](CCCNC(=N)N)NC(=O)[C@H](CCCNC(=N)N)NC(=O)[C@H](CCCNC(=N)N)NC(=O)[C@H](CC(=O)O)NC(=O)[C@H](Cc1ccc(O)cc1)NC(=O)[C@@H]1CCCN1C(=O)[C@H](CO)NC(=O)[C@H](CCCNC(=N)N)NC(=O)[C@H](Cc1ccc(O)cc1)NC(=O)[C@H](CCCNC(=N)N)NC(=O)CNC(=O)CCCOCCOCCOCCOCCOCCOCCN)C(=O)N[C@H](C(=O)N[C@@H](CC(=O)O)C(N)=O)[C@@H](C)O (X1-GRYRSPYDRRRRYRRITD-NH2),Active,Active; Compound Showed Weak Inhibitory Activity,Active; Compound Showed Minimal Activity,> 80%,15.9 nM,inactive,
CC[C@H](C)[C@H](NC(=O)[C@H](CCCNC(=N)N)NC(=O)[C@H](CCCNC(=N)N)NC(=O)[C@H](Cc1ccc(O)cc1)NC(=O)[C@H](CCCNC(=N)N)NC(=O)[C@H](CCCNC(=N)N)NC(=O)[C@H](CCCNC(=N)N)NC(=O)[C@H](CCCNC(=N)N)NC(=O)[C@H](CC(=O)O)NC(=O)[C@H](Cc1ccc(O)cc1)NC(=O)[C@@H]1CCCN1C(=O)[C@H](CO)NC(=O)[C@H](CCCNC(=N)N)NC(=O)[C@H](Cc1ccc(O)cc1)NC(=O)[C@H](CCCNC(=N)N)NC(=O)CNC(=O)CCCOCCOCCOCCOCCN)C(=O)N[C@H](C(=O)N[C@@H](CC(=O)O)C(N)=O)[C@@H](C)O (X2-GRYRSPYDRRRRYRRITD-NH2),Active,Active; Compound Showed Weak Inhibitory Activity,Active; Compound Showed Minimal Activity,> 80%,7.8 nM,inactive,
CC[C@H](C)[C@H](NC(=O)[C@H](CCCNC(=N)N)NC(=O)[C@H](CCCNC(=N)N)NC(=O)[C@H](Cc1ccc(O)cc1)NC(=O)[C@H](CCCNC(=N)N)NC(=O)[C@H](CCCNC(=N)N)NC(=O)[C@H](CCCNC(=N)N)NC(=O)[C@H](CCCNC(=N)N)NC(=O)[C@H](CC(=O)O)NC(=O)[C@H](Cc1ccc(O)cc1)NC(=O)[C@@H]1CCCN1C(=O)[C@H](CO)NC(=O)[C@H](CCCNC(=N)N)NC(=O)[C@H](Cc1ccc(O)cc1)NC(=O)[C@H](CCCNC(=N)N)NC(=O)CNC)C(=O)N[C@H](C(=O)N[C@@H](CC(=O)O)C(N)=O)[C@@H](C)O (H-[Sar]RYRSPYDRRRRYRRITD-NH2),Active,,,,14.2 nM,,IC50 [9]: 121 nM; IC50 [10]: 7800 nM; inhibition [11]: 100%; inhibition [12]: inactive; inhibition [13]: inactive; inhibition [14]: inactive; inhibition [15]: inactive; inhibition [16]: Active; Activity (Rattus norvegicus [17]): inactive; Activity (Rattus norvegicus [18]): Active; Activity (Rattus norvegicus [19]): Active
CCCCCCCCCCCCCCCC(=O)NCC(=O)N[C@@H](CCCNC(=N)N)C(=O)N[C@@H](Cc1ccc(O)cc1)C(=O)N[C@@H](CCCNC(=N)N)C(=O)N[C@@H](CO)C(=O)N1CCC[C@H]1C(=O)N[C@@H](Cc1ccc(O)cc1)C(=O)N[C@@H](CC(=O)O)C(=O)N[C@@H](CCCNC(=N)N)C(=O)N[C@@H](CCCNC(=N)N)C(=O)N[C@@H](CCCNC(=N)N)C(=O)N[C@@H](CCCNC(=N)N)C(=O)N[C@@H](Cc1ccc(O)cc1)C(=O)N[C@@H](CCCNC(=N)N)C(=O)N[C@@H](CCCNC(=N)N)C(=O)N[C@H](C(=O)N[C@H](C(=O)N[C@@H](CC(=O)O)C(N)=O)[C@@H](C)O)[C@@H](C)CC (Palmitoyl-GRYRSPYDRRRRYRRITD-NH2),inactive,Active; Compound Showed Weak Inhibitory Activity,Active; Compound Showed Minimal Activity,,,,Stability [1]: Stable
CC[C@H](C)[C@H](NC(=O)[C@H](CCCNC(=N)N)NC(=O)[C@H](CCCNC(=N)N)NC(=O)[C@H](Cc1ccc(O)cc1)NC(=O)[C@H](CCCNC(=N)N)NC(=O)[C@H](CCCNC(=N)N)NC(=O)[C@H](CCCNC(=N)N)NC(=O)[C@H](CCCNC(=N)N)NC(=O)[C@H](CC(=O)O)NC(=O)[C@H](Cc1ccc(O)cc1)NC(=O)[C@@H]1CCCN1C(=O)[C@H](CO)NC(=O)[C@H](CCCNC(=N)N)NC(=O)[C@H](Cc1ccc(O)cc1)NC(=O)[C@H](CCCNC(=N)N)NC(=O)CNC(=O)CCCOCCOCCOCCOCCOCCOCCOCCOCCN)C(=O)N[C@H](C(=O)N[C@@H](CC(=O)O)C(N)=O)[C@@H](C)O (X3-GRYRSPYDRRRRYRRITD-NH2),Active,Active; Compound Showed Weak Inhibitory Activity,Active; Compound Showed Minimal Activity,> 80%,11.8 nM,inactive,
